This is an account of results in patent US8557837B2, “Sinomenine derivatives, synthetic methods and uses thereof” (Shanghai Institute of Organic Chemistry, Chinese Academy of …, priority 2010, dated 2013).

“Also recorded” adds a separate entry of the source.

In data set [1] the test system is TNF-α. Description: In vitro inhibition of TNF-α (LPS-stimulated J774 macrophages, ELISA of supernatant). The settings on record: mice macrophage cell line J774, 1 μg/mL LPS, compound 10 μM, 5 hours. It counts as cell-based. The protocol:
The horizontal axis indicates the compound numbers corresponding to the examples, and the vertical axis indicates the inhibition rate (IR) of TNF-α. The concentration used in the assays is 10 μM.
In vitro inhibition of TNF-α: inoculate 48 well plates with mice macrophase cell line J774, at 1×10^5 cells/well. Incubate in DMEM containing 10% FBS under 6% CO2 for 12 hours. Use DMEM medium containing 1 μg/mL LPS to dilute the small molecule compounds to a final concentration of 10^−5 mol/L and use that to replace the original culture medium. The incubation is continued for another 5 hours. Collect the supernatants and determine TNF-α using ELISA. In this experiment, compound SB 202190 (4-(4-fluorophenyl)-2-(4-hydroxyphenyl)-5-(4-pyridyl)-1H-imidazole, CAS 152121-30-7, was purchased from Sigma. This compound is a specific inhibitor of p38 MAPK. Through inhibition of p38 phosphorylation, it inhibits the production of TNF-α) is used as a positive control.
In general terms: ELISA stands for enzyme-linked immunosorbent assay.

In data set [2] the test system is TNF-α. Description: LPS-induced endotoxin shock model, plasma TNF-alpha by ELISA. The class given is in vivo. The settings on record: male C57BL/6 mice, 25, 50, 100 mg/Kg injected peritoneally 1 hour before LPS 2.5 mg/Kg; blood 1.5 hours after LPS. The text has this:
The horizontal axis indicates the compound numbers corresponding to the examples or the amount of Compound 1 used in mg/Kg of mouse body weight. The vertical axis indicates the concentrations of TNF-α.
Materials: C57BL/6 mice (6-8 week old) are purchased from Shanghai Laboratory Animal Center (SLAC). Animals are kept, with sufficient water and standard diets, in the Laboratory Animal Center (clean room) in the Institute of Biochemistry and Cell Biology at the Shanghai Institute for Biological Sciences, Chinese Academy of Sciences.
Lipopolysaccharides (LPS) was purchased from Sigma (St. Louis, Mo.) was dissolved in sterile physiological saline and aliquots are stored at −70° C. (The LPS used in the cell testing has a catalog No. L4391, and used in animal testing has a catalog No. L3129.)
Cytokine (TNF-alpha) ELISA test kit (Catalog No. MTA00) was purchased from R&D Co.
Steps: (1) 6-8 week old male C57BL/6 mice are randomly grouped in 5 mice per group for use in endotoxin model tests;
(2) weigh each mouse, and inject peritoneally 200 μL different concentrations of small molecule Compound 1 in physiological saline (the injection doses for the low, medium, and high groups are respectively 25 mg/Kg, 50 mg/Kg, and 100 mg/Kg body weight). The control group was injected with 200 μL physiological saline; […]

The melting point is the temperature of the solid-liquid transition.

Regarding `COC1=CC2[C@@H]3[C@H](OC)c4c(CO)cc(OC)c(O)c4[C@]2(CCN3C)CC1=O` (stereo partly drawn) [Compound 35, 1-hydroxymethyl-10β-methoxysinomenine], the “inhibition rate (IR) of TNF-α / anti-inflammatory activity (FIG. 1)” value in the data set on TNF-α [1] (10 µM) is recorded as “TNF-α stimulating effects; also recorded: TNF-α stimulatory activities”.
For `COC1=CC2[C@@H]3[C@H](Sc4ccccc4)c4ccc(O)c(O)c4[C@]2(CCN3C)CC1=O` (stereo partly drawn) [Compound 4], the melting point is 210 to 212 °C (dec.). The “inhibition rate (IR) of TNF-α / anti-inflammatory activity (FIG. 1)” value in the data set with TNF-α [1] is listed as “apparent activities”.
In the same order, the values of `COC1=CC2[C@@H]3[C@H](OC(C)=O)c4ccc(OC(C)=O)c(OC(C)=O)c4[C@]2(CCN3C)CC1=O` (stereo partly drawn) [Compound 31] are 198 to 199 °C and “apparent activities”.
For `COC1=CC2[C@@H]3C(=O)c4ccc(OC)c(OC(C)=O)c4[C@]2(CCN3C)C[C@@H]1O` (stereo partly drawn) [Compound 39], the “inhibition rate (IR) of TNF-α / anti-inflammatory activity (FIG. 1)” value in the data set on TNF-α [1] is reported as “apparent activities”.
For the compound `COC1=CC2[C@@H]3[C@H](OC)c4ccc(OC)c(O)c4[C@]2(CCN3C)CC1=O` (stereo partly drawn) [Compound 33, 10β-methoxysinomenine], the melting point was 201 to 203 °C (dec.). Moreover, the “inhibition rate (IR) of TNF-α / anti-inflammatory activity (FIG. 1)” value in the data set with TNF-α [1] (10 µM) is recorded as “TNF-α stimulating effects; also recorded: TNF-α stimulatory activities”.
For the compound `COC1=CC2[C@@H]3C(=O)c4ccc(OC)c(OC(C)=O)c4[C@]2(CCN3C)C[C@H]1O` (stereo partly drawn) [Compound 40], in the data set on TNF-α [1], the “inhibition rate (IR) of TNF-α / anti-inflammatory activity (FIG. 1)” value was “apparent activities”.
With `COC1=C[C@@H]2[C@@H]3[C@H](Sc4ccc(C)cc4)c4ccc(O)c(O)c4[C@]2(CCN3C)CC1=O` [Compound 1], the melting point was 224 to 225 °C (dec.). Also, in the data set on TNF-α [1], the “inhibition rate (IR) of TNF-α / anti-inflammatory activity (FIG. 1)” value was “apparent activities”. In the data set on TNF-α [2], the “effect on pro-inflammatory cytokine TNF-α level in plasma (FIG. 3)” value was “substantial inhibitory effect; also recorded: dose dependent”.
For `COC1=CC2[C@@H]3[C@H](OC(C)=O)c4c(CO)cc(OC)c(O)c4[C@]2(CCN3C)CC1=O` (stereo partly drawn) [Compound 34, 1-hydroxymethyl-10β-acetoxysinomenine], in the data set with TNF-α [1] (10 µM), the “inhibition rate (IR) of TNF-α / anti-inflammatory activity (FIG. 1)” value is recorded as “TNF-α stimulating effects; also recorded: TNF-α stimulatory activities”.
Consider `COC1=CC2[C@@H]3[C@H](Sc4ccc(C(C)(C)C)cc4)c4ccc(O)c(O)c4[C@]2(CCN3C)CC1=O` (stereo partly drawn) [Compound 8], for which the melting point was 232 to 233 °C (dec.). The “inhibition rate (IR) of TNF-α / anti-inflammatory activity (FIG. 1)” value with TNF-α [1] was “apparent activities”.
